This is an account of results in PMC6934184, “Selective DNA-PKcs inhibition extends the therapeutic index of localized radiotherapy and chemotherapy” (The Journal of Clinical Investigation, 2019).

A word on the inhibition: it is the relative decrease from the control value, in per cent. A higher inhibition goes with strong suppression.

In the experiment the target is T1, MAPKAPK3 (Homo sapiens, UniProt Q16644).
T1 construct: purchased Thermo Fisher Scientific (Life Technologies) SelectScreen
Put plainly: SelectScreen Z'LYTE. The class given is biochemical. In a few lines:
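SelectScreen broad panel; activity (Z'LYTE, Adapta) plus binding formats. ATP: Km app for CSF1R Z'LYTE; 10 for CAMK1 Adapta. Readout = % per kinase.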

T1 sequence (Q16644 whole entry): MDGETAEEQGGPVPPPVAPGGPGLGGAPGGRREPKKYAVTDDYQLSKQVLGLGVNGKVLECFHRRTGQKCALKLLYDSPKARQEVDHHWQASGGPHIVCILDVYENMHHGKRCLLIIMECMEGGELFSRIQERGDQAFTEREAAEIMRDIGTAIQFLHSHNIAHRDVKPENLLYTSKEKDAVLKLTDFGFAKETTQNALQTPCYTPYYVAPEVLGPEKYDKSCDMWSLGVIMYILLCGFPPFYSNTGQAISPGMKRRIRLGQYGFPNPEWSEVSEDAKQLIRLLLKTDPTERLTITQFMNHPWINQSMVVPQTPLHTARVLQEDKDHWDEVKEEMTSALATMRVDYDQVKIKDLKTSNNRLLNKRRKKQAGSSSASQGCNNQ

Compound `CN(C(=O)CN1CCOCC1)c1ccc2sc3c(-c4cccc5c(=O)cc(N6CC7CCC(C6)O7)oc45)cccc3c2c1` [NU5455] returned an inhibition at 1 µM of 1.4%.
